Three compounds from US9737610B2 (priority 2010, dated 2017) can be followed below.

Entries after “also recorded” stand apart in the source; their conditions may differ.

Data set [1] in a line: Physical stability assessment in 0.1N HCl at 37° C. (PLM). The class given is physicochemical. The procedure:
For the assessment of physical stability for samples in a 0.1N HCl solution maintained at 37° C., observations were made and microscopy images were acquired using polarized light at different time points including 0, 6 and 24 hrs, as summarized in Table 6. Based on the absence of birefringent particles when samples were observed by PLM, dispersions prepared with HPMC-AS HG and HPMC-AS MG display the highest physical stability under this particular stress condition.

The nature of data set [2]: Physical stability assessment at 40° C./75% RH for 7 d (PLM, mDSC). The class given is physicochemical. As to conditions: after 40° C./75% RH for 7 d. The procedure:
Each of the samples remained as irregular aggregates without birefringence/extinctions after stressed at 40° C./75% RH condition for 7 days. […] All of samples display a single apparent Tg at approximately 148° C.

The nature of data set [3]: Physical stability assessment at 60° C./dry for 7 d (PLM). The class given is physicochemical. As to conditions: after 60° C./dry for 7 d. An excerpt: Each of the samples remained as irregular aggregates without birefringence/extinctions after stressed at this condition for 7 days.
The nature of data set [4]: Dog pharmacokinetics of API, amorphous and solid dispersion capsules, cross-over. Also noted: species or system male beagle dogs. As to conditions: male, beagle, in vivo, po, 2200 mg. The procedure: Presented herein are dog pharmacokinetics (PK) studies comparing various forms of rifaximin. […] In the SD dosage form, the polymer used was HPMC-AS at a drug to polymer ratio of 50:50. The formulation also comprised pluronic F127 and crosscarmellose sodium (see Example 4). […] Blood was collected at timed intervals for 24 h after dosage administration, and plasma was harvested for LC-MS/MS analysis.

The next data set in a line: in vivo. To be noted: dog, po, 2200 mg.

As to `CO[C@H]1/C=C/O[C@@]2(C)Oc3c(C)c(O)c4c(O)c(c5c(nc6cc(C)ccn65)c4c3C2=O)NC(=O)/C(C)=C\C=C\[C@H](C)[C@H](O)[C@@H](C)[C@@H](O)[C@@H](C)[C@H](OC(C)=O)[C@@H]1C` [(100:0) Rifaximin-only, Rifaximin], the PLM results in data set [1] (6 hrs) is given as “clear view of B/E particles; also recorded: agg., no B/E + a few B/E particles”; in data set [1] (24 hrs), “agg., no B/E + a few B/E particles”; in data set [1] (time 0) it was “agg., irr., no B/E”; in data set [2] it was “agg., irr., no B/E”; in data set [3], “agg., irr., no B/E”. Also, the “time at which crystallization (birefringence/extinctions) was observed” value in data set [1] (PLM) amounted to 6 h.
In general, Tmax refers to the time from dosing to the highest level. What is called AUC is the area under the concentration-time curve, a measure of exposure. Lower therefore signals low exposure. Broadly, the AUC(0-inf) is total exposure, with the tail of the curve extrapolated. The Cmax is the peak of the concentration-time curve. With `CO[C@H]1/C=C/O[C@@]2(C)Oc3c(C)c(O)c4c(O)c(c5c(nc6cc(C)ccn65)c4c3C2=O)NC(=O)/C(C)=C\C=C\[C@H](C)[C@H](O)[C@@H](C)[C@@H](O)[C@@H](C)[C@H](OC(C)=O)[C@@H]1C` [amorph, Rifaximin], in data set [4], the “AUCINF_obs, mean” value is 4027 ng·h/mL; the “AUC_0-24, mean” value was found to be 3908 ng·h/mL; the “AUClast, mean” value worked out at 3908 ng·h/mL; the “Half-life, geometric mean” value turned out to be 5.88 h. Moreover, in data set [4], the Tmax worked out at 1 h and the “mean exposure (AUCinf) as compared with API” value was approximately 40 fold. In the data set “in vivo”, the AUC was found to be 3910 ng·h/mL, the AUC(0-inf) was found to be 4030 ng·h/mL, the peak level (Cmax) was 1390 ng/mL and the Tmax stood at 2 h.
For orientation: half-life means the time in which the quantity being followed falls by half. For the compound `CO[C@H]1/C=C/O[C@@]2(C)Oc3c(C)c(O)c4c(O)c(c5c(nc6cc(C)ccn65)c4c3C2=O)NC(=O)/C(C)=C\C=C\[C@H](C)[C@H](O)[C@@H](C)[C@@H](O)[C@@H](C)[C@H](OC(C)=O)[C@@H]1C` [API, Rifaximin], in data set [4], the “AUCINF_obs, mean” value was 104 ng·h/mL; the “AUC_0-24, mean” value was determined as 82 ng·h/mL; the “AUClast, mean” value stood at 81 ng·h/mL; the “Cmax, mean” value turned out to be 44.93 ng/mL. The half-life in data set [4] (Half-life, geometric mean) is 419 min. For the same compound, the Tmax in data set [4] (Tmax, median) is 1 h.
